One series deals with MCF7. As to the kind of experiment: Cytotoxicity against human MCF7 cells assessed as effect on cell viability up to 100 uM after 24 hrs by WST1 assay. It is filed as cell-based. The note with it: mcf7, 24 h.
The subject of another series is HUVEC. The series is described as follows: Cytotoxicity against HUVEC assessed as effect on cell viability up to 100 uM after 24 hrs by WST1 assay. The class given is cell-based. The note with it: human.

Drawing on ChEMBL document CHEMBL4190167 (Medchemcomm, 2016), this text covers Activity for two molecules.

With `COC(=O)[C@]1(C)CCC[C@]2(C)c3cc4oc(C)nc4cc3C[C@@H](O)[C@@H]12`, the Activity entry with MCF7 and with HUVEC was “Non-Toxic” throughout.

Consider `CCOC(=O)[C@]1(C)CCC[C@]2(C)c3cc4occc4cc3C[C@@H](O)[C@@H]12`, for which the Activity result in the series on MCF7 and in the series with HUVEC was “Non-Toxic” each time.
